In article PMC10765884, “MC180295 is a highly potent and selective CDK9 inhibitor with preclinical in vitro and in vivo efficacy in cancer” (Clinical Epigenetics, 2024):
Entries after “also recorded” stand apart in the source; their conditions may differ.

Experiments:
[1] = test system: GFP silenced by a methylated CMV promoter in YB5 cells; test: Live-cell assay for GFP reactivation in YB5 cells; type: cell-based; settings: for lowest concentration reactivating GFP: after 24 h treatment, FACS
Description: To identify novel epigenetic targets, we previously used a phenotype-based screen, the YB5 SW48 daughter cell line reporter system, to identify drugs that can reactivate GFP silenced by a methylated CMV promoter. […] […]. To better understand MC180295's antitumor effects, we tested its growth inhibition in a panel of cancer cell lines.
The live-cell assay for GFP reactivation in YB5 cells was done as previously described. Cells were treated with a single dose of drug 24 h after seeding at low density, and GFP fluorescence measured in a Millipore Guava flow cytometer (EMD, Millipore) instrument, or by imaging in a Cytation instrument (Agilent). Cancer cell lines (listed in Additional file 1: Fig. S1A) were obtained from ATCC or the Temple/Fox Chase Cellular Repository and cultured in the recommended medium. To measure growth inhibition, cells were seeded in 96-well plates at 40% confluency. Fresh medium was changed the next day and drugs were added directly. Drug-free fresh medium was changed on the fourth day. The cells were collected on day 5 by trypsin, suspended in medium, mixed with trypan blue (Thermo Fisher Scientific) (1:1 ratio), and counted using a LUNA II automated cell counter. Each sample was counted at least three times, and average numbers used for the analysis. Each treatment condition was performed in biological triplicates.

[2] = test system: SW48 cells; test: SW48 colon cancer xenograft in NSG mice; type: in vivo; settings: for tumor growth / tumor size / survival: SW48 s.c. in NSG mice, 20 mg/kg i.p. q.o.d.; for tumor growth / tumor size: vs vehicle
Description: Fig. 3 Antitumor, survival, and metabolic effects of MC180295 and its enantiomers, MC180379 and MC180380. A Antitumor effects of MC180295, MC180379, and MC180380. NSG mice were inoculated (s.c.) with 2 × 10^6 SW48 cells. Eleven days later, when tumors were palpable, 20 mg/kg MC180295, MC180379, MC180380, or vehicle were administered (i.p.) every other day (q.o.d.). Tumor sizes were measured using a caliper. […] . C Antitumor effects of MC180379 and MC180380. NSG mice were inoculated (s.c.) with 1 × 10^6 HT29 cells. Twelve days later, when tumors were palpable, 20 mg/kg MC180379, MC180380, or vehicle were administered (i.p.) q.o.d. Tumor sizes were measured using a caliper. D HT29-xenografted mouse survival following (i.p.) q.o.d. dosing with 20 mg/kg MC180379 or MC180380. E NSG mice were inoculated (i.p.) with 5 × 10^5 MV4-11-luc cells. Four days later, when substantial tumor burden was evident by bioluminescence imaging, MC180379, MC180380, or vehicle were administered (i.p.) q.o.d at 20 mg/kg. Luciferase expression was quantified and calculated. F Mouse survival in days. […] G In vitro liver microsome stability and rat hepatocyte/Sprague–Dawley stability assay comparing MC180379 to MC180380. The dog breed was beagle and the mouse microsome strain was CD-1. All sexes (including the hepatocytes) were male except the human microsomes which were mixed gender. Significances were calculated using log-rank (Mantel-Cox) or Student’s t tests.
Fig. 4 Antitumor and survival-extending properties of a hypomethylating agent (DAC) combined with MC180295. A Antitumor effects of MC180295 and MC180295 + DAC. NSG mice were inoculated (s.c.) with 2 × 10^6 SW48 cells. Eleven days later, when tumors were palpable, 20 mg/kg MC180295 or vehicle were administered (i.p.) q.o.d. 0.5 mg/kg DAC was administered (i.p.) daily. Tumor sizes were measured using a caliper. B Mouse survival in days. 20 mg/kg MC180295 was administered (i.p.) q.o.d. 0.5 mg/kg DAC was administered (i.p.) daily. C NSG mice were inoculated (i.p.) with 5 × 10^5 MV4-11-luc cells. Four days later, when substantial tumor burden was evident by bioluminescence imaging, MC180295 (20 mg/kg) or vehicle were administered (i.p.) every other day. 0.5 mg/kg DAC was administered (i.p.) daily. Luciferase expression was quantified and calculated. […] E Antitumor effects of MC180380 and MC180380 + DAC. NSG mice were inoculated (s.c.) with 2 × 10^6 SW48 cells. Eleven days later, when tumors were palpable, 10 mg/kg MC180380, 20 mg/kg MC180380, or vehicle was administered (i.p.) q.o.d. 0.5 mg/kg DAC was administered (i.p.) daily. Mouse survival shown in days. Significances were calculated using log-rank (Mantel-Cox) or Student's t tests. Data are shown as means ± SEMs. ***p < 0.001
For the s.c. SW48 model, 2 × 10^6 cells were injected into the flanks of randomly assigned, gender-matched 8–10-week-old NSG mice.

[3] = Drug toxicity: body weights and complete blood counts in tumor-bearing mice; type: in vivo
Description: For the s.c. SW48 model, 2 × 10^6 cells were injected into the flanks of randomly assigned, gender-matched 8–10-week-old NSG mice. 20 mg/kg MC180379, MC180380, or MC180295 was injected (i.p.), every other day, when the tumors were palpable, 11 days after engraftment, until endpoints were met. Mice were sacrificed before tumor volumes exceeded 400 mm^2 (endpoint for this model). For the s.c. HT29 model, 2 × 10^6 cells were injected into the flanks of randomly assigned, gender-matched, 8–10-week-old NSG mice. 20 mg/kg MC180379 or MC180380 was injected (i.p.), every other day, when the tumors were palpable, 12 days after engraftment, until endpoints were met. Mice were sacrificed before tumors volumes exceeded 400 mm^2 (used as the endpoint for this model). For the CT26.CL25 model, 5 × 10^5 cells were injected into the flanks of randomly assigned female 8–10-week-old B6 mice. 20 mg/kg MC180295 was injected (i.p.), every other day, when the tumors were palpable, 8 days after engraftment, until endpoints were met. 0.5 mg/kg DAC was injected (i.p.) daily until an endpoint was met. Mice were sacrificed when they developed serious tumoral ulcerations. CD8 + T cells were depleted using an anti-CD8 antibody (InVivoMAb anti-mouse CD8 (Lyt 2.1), BE0118) on days 4, 5, and 11 after inoculation. MC180295, MC180379, and MC180380 were dissolved in NMP (Fisher Scientific), Captisol® (20% w/v) (CyDex), PEG-400 (Millipore Sigma), and normal saline (PBS) (Corning), at a ratio of 1:4:4:11. NMP was added first, followed by Captisol and PEG-400. PBS was added last. DAC was dissolved in water. In a subset of the experiments, after mice were sacrificed, peripheral blood was collected, and complete blood counts were obtained using Abaxis VetScan HM5.

[4] = SW48 model, 20 mg/kg i.p. q.o.d.
[5] = HT29 model, 20 mg/kg i.p. q.o.d.

Nc1nc(N[C@H]2C[C@@H]3CC[C@H]2C3)sc1C(=O)c1ccccc1[N+](=O)[O-] (relative stereo) [MC180295]
lowest concentration reactivating GFP [1]: 100 nM
tumor growth / tumor size ([2]; 20 mg/kg): significantly reduce tumor size
tumor growth / tumor size ([2]; listed as MC190295, 20 mg/kg): no statistical difference in tumor size
survival ([2]; 20 mg/kg): prolong overall survival
body weights ([3]; CT26.CL25 immunocompetent mice, after CD8 depletion, Fig. S5B): neither MC180295 nor MC180295 + DAC treatment affected NSG mouse body weights, after CD8 depletion
body weights ([3]; CT26.CL25 immunocompetent mouse model, Fig. S5A): neither MC180295 nor MC180295 + DAC treatment affected NSG mouse body weights
body weights ([3]; SW48 model, NSG mice, Fig. S4C): did not affect NSG mouse body weights

Nc1nc(N[C@@H]2C[C@H]3CC[C@@H]2C3)sc1C(=O)c1ccccc1[N+](=O)[O-] [MC180379]
lowest concentration reactivating GFP [1]: 500 nM
survival [2]: no survival difference
tolerability; neutrophil, lymphocyte, monocyte counts [3, 4]: well-tolerated

Nc1nc(N[C@H]2C[C@@H]3CC[C@H]2C3)sc1C(=O)c1ccccc1[N+](=O)[O-] [MC180380]
potency in inducing GFP (comparison of enantiomers) ([1]; 24 h and 4 days after one-time treatment): more potent than MC18379 in inducing GFP; also recorded: epigenetically more potent than MC180379
lowest concentration reactivating GFP [1]: 100 nM
overall survival, dose comparison ([2]; SW48 in NSG mice, 10 or 20 mg/kg MC180380 i.p. q.o.d.): 20 mg/kg led to better overall survival than 10 mg/kg
survival ([2]; 20 mg/kg): no survival difference
absolute lymphocyte and monocyte counts [3, 5]: higher absolute lymphocyte and monocyte counts than MC180379-treated mice
platelet counts [3, 5]: higher platelet counts than those treated with MC180379
platelet counts [3, 4]: slightly higher platelet counts than MC180379
tolerability; neutrophil, lymphocyte, monocyte counts [3, 4]: well-tolerated
body weights ([3]; SW48 model, NSG mice, Fig. S4E): did not affect NSG mouse body weights
bone marrow suppression ([3]; in vivo, from lymphocyte, monocyte and platelet counts): less bone marrow-suppressive (and thus less toxic) than MC180379
